Experimental data: the kinase profiling compilation of Christmann-Franck et al. (2016)
Each block holds one molecule with its values, some of them ahead of it.

Legend:
Assay in all cases: radiometric filter-binding kinase assay
PRKCA (human) = PRKCA (human) (UniProt P17252)
EPHA2 (human) = EPHA2 (human) (UniProt P29317)
MINK1 (human) = MINK1 (human) (UniProt Q8N4C8)
PRKACA (human) = PRKACA (human) (UniProt P17612)
AURKA (human) = AURKA (human) (UniProt O14965)
ERBB4 (human) = ERBB4 (human) (UniProt Q15303)
FGFR1 (human) = FGFR1 (human) (UniProt P11362)
MAP2K6 (human) = MAP2K6 (human) (UniProt P52564)
CDK2 CCNA2 (human) = CDK2 CCNA2 (human) (UniProt P20248+P24941)
[1] = test system: SGK1 (human), O00141 [S422D]
MAPKAPK3 (human) = MAPKAPK3 (human) (UniProt Q16644)
INSRR (human) = INSRR (human) (UniProt P14616)
GCK (human) = GCK (human) (UniProt Q12851)
EEF2K (human) = EEF2K (human) (UniProt O00418)
CHEK1 (human) = CHEK1 (human) (UniProt O14757)
MAPK10 (human) = MAPK10 (human) (UniProt P53779)
MAPK12 (human) = MAPK12 (human) (UniProt P53778)
TAOK1 (human) = TAOK1 (human) (UniProt Q7L7X3)
DYRK2 (human) = DYRK2 (human) (UniProt Q92630)
BRSK1 (human) = BRSK1 (human) (UniProt Q8TDC3)
AURKB (human) = AURKB (human) (UniProt Q96GD4)
MAP2K2 (human) = MAP2K2 (human) (UniProt P36507)
PHKG1 (human) = PHKG1 (human) (UniProt Q16816)
MELK (human) = MELK (human) (UniProt Q14680)
RIPK2 (human) = RIPK2 (human) (UniProt O43353)
CSNK2A1 (human) = CSNK2A1 (human) (UniProt P68400)
BTK (human) = BTK (human) (UniProt Q06187)
PIM3 (human) = PIM3 (human) (UniProt Q86V86)
MST4 (human) = MST4 (human) (UniProt Q9P289)
SRPK1 (human) = SRPK1 (human) (UniProt Q96SB4)
PIM2 (human) = PIM2 (human) (UniProt Q9P1W9)
RPS6KA3 KD1 KD2 (human) = RPS6KA3 KD1 KD2 (human) (UniProt P51812)
[2] = test system: PAK2 (human), Q13177 [T402E]
FLT1 (human) = FLT1 (human) (UniProt P17948)
MAPK15 (human) = MAPK15 (human) (UniProt Q8TD08)
MAPKAPK5 (human) = MAPKAPK5 (human) (UniProt Q8IW41)

Chain of GCK (human) (Q12851 whole entry, looked up): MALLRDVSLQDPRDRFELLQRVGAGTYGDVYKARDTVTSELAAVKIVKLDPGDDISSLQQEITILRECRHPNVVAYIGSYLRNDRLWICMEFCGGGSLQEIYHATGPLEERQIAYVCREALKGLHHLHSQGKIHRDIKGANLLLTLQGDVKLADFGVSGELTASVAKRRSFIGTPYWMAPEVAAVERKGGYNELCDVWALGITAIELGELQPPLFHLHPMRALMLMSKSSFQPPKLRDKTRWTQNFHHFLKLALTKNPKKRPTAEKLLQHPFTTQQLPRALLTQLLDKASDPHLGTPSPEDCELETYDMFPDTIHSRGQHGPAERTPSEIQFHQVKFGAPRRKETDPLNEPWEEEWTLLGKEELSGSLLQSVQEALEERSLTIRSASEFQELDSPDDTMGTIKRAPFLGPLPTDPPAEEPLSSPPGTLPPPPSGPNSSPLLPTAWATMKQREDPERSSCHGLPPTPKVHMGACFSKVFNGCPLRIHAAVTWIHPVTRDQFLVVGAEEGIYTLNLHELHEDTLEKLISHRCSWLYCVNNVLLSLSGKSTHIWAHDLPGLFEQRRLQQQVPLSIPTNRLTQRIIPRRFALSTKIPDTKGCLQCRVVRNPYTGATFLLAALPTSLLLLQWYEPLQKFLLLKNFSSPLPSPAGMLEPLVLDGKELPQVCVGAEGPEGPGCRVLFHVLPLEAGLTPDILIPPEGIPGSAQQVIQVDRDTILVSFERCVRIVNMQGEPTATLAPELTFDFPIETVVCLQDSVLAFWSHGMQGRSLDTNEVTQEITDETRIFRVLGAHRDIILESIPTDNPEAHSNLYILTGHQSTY
Chain of BTK (human) (Q06187 whole entry, looked up): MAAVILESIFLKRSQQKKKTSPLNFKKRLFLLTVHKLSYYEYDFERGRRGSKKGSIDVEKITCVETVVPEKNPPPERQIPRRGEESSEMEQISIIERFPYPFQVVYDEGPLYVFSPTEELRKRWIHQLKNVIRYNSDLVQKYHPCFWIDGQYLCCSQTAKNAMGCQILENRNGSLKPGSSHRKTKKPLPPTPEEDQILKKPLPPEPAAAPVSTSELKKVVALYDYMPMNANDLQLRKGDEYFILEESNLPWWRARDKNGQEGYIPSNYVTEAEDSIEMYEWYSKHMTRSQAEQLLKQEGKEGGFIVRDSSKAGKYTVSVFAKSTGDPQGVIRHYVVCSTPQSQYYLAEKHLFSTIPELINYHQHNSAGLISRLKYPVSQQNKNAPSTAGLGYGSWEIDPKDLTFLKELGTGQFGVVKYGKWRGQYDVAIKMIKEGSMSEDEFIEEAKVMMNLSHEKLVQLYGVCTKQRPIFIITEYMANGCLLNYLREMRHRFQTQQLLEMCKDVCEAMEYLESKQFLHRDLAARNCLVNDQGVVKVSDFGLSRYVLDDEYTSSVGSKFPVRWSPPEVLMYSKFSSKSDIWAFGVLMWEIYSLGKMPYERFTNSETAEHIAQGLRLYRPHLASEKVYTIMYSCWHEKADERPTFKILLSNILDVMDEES
Chain of MAP2K2 (human) (P36507 whole entry, looked up): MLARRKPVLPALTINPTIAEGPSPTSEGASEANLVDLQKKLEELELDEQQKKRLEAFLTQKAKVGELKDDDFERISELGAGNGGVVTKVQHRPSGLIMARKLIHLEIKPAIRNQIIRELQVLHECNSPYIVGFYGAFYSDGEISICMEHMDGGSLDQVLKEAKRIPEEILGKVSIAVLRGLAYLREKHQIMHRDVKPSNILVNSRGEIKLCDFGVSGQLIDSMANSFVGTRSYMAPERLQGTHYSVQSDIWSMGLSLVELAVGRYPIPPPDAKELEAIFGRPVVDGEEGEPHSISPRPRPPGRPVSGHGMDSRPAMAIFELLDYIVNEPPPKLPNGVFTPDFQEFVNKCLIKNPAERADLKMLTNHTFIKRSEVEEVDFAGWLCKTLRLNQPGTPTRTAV
Chain of RIPK2 (human) (O43353 whole entry, looked up): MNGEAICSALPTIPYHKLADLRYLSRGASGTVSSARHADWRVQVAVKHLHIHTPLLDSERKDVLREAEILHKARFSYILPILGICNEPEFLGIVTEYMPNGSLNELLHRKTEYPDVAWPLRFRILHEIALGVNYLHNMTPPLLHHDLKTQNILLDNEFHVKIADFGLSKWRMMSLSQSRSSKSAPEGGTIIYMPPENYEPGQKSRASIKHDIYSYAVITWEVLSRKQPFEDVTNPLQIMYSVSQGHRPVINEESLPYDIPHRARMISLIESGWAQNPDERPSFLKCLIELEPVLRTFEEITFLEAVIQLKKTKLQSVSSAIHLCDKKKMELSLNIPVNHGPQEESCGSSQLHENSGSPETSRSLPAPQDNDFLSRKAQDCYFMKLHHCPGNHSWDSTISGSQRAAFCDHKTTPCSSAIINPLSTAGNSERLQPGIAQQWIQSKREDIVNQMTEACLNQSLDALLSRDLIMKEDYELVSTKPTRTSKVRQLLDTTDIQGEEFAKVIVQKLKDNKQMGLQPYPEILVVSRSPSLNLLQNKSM
Chain of SRPK1 (human) (Q96SB4 whole entry, looked up): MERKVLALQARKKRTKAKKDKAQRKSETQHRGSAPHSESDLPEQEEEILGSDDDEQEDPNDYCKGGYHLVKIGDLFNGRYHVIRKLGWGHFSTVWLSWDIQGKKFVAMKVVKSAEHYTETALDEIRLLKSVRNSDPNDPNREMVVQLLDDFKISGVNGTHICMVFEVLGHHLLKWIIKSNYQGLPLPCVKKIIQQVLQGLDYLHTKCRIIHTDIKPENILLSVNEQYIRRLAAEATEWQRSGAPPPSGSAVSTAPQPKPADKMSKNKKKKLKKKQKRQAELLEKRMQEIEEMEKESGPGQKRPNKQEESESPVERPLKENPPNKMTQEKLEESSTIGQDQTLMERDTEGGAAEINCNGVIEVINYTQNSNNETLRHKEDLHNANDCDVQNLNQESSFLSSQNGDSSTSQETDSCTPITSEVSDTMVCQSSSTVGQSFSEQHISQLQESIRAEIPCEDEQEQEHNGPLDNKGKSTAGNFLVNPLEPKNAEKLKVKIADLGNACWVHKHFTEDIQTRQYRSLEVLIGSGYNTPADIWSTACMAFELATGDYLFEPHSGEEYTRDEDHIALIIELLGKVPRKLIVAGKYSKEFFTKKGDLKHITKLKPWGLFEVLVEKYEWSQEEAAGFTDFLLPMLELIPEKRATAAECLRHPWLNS
Chain of MAPKAPK3 (human) (Q16644 whole entry, looked up): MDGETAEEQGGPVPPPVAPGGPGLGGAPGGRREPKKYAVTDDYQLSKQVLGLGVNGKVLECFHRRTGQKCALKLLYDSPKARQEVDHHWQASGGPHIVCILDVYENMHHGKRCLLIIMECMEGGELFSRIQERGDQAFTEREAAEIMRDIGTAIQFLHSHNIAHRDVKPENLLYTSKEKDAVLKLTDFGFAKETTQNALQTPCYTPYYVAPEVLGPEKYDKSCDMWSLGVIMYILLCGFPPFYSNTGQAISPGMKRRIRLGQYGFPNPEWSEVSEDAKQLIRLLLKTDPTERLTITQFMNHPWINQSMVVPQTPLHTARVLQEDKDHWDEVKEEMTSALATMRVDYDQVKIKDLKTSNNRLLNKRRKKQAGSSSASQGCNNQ
Chain of SGK1 (human), O00141 [S422D] (O00141 whole entry S422D, looked up): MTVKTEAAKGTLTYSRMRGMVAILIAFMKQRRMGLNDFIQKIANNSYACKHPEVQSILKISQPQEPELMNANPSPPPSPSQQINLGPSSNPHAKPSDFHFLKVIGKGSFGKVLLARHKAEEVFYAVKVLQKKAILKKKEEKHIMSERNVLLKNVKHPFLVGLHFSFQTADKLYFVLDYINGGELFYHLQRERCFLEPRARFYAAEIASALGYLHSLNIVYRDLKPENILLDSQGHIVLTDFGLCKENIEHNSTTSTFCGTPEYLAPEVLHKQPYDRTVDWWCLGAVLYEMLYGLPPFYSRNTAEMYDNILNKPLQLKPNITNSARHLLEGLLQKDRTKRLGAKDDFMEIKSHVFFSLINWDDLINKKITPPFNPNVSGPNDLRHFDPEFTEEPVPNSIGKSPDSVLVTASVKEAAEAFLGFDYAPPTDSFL

- residual activity (PRKCA (human); compound 10.0 µM): 88%
- residual activity (EPHA2 (human); compound 10.0 µM): 105%
- residual activity (MINK1 (human); compound 1.0 µM): 93%
- residual activity (MINK1 (human); compound 10.0 µM): 96%
- residual activity (PRKACA (human); compound 1.0 µM): 73%
- residual activity (PRKACA (human); compound 10.0 µM): 81%
- residual activity (AURKA (human); compound 1.0 µM): 103%
- residual activity (AURKA (human); compound 10.0 µM): 97%
- residual activity (ERBB4 (human); compound 1.0 µM): 110%
- residual activity (ERBB4 (human); compound 10.0 µM): 116%
- residual activity (FGFR1 (human); compound 10.0 µM): 126%
- residual activity (MAP2K6 (human); compound 1.0 µM): 95%
- residual activity (MAP2K6 (human); compound 10.0 µM): 94%
- residual activity (CDK2 CCNA2 (human); compound 1.0 µM): 84%
- residual activity (CDK2 CCNA2 (human); compound 10.0 µM): 90%
- residual activity ([1]; compound 1.0 µM): 95%
- residual activity ([1]; compound 10.0 µM): 112%
- residual activity (MAPKAPK3 (human); compound 1.0 µM): 103%
- residual activity (MAPKAPK3 (human); compound 10.0 µM): 101%
- residual activity (INSRR (human); compound 1.0 µM): 87%
- residual activity (INSRR (human); compound 10.0 µM): 83%
- residual activity (GCK (human); compound 1.0 µM): 91%
- residual activity (GCK (human); compound 10.0 µM): 88%
- residual activity (EEF2K (human); compound 1.0 µM): 100%
- residual activity (EEF2K (human); compound 10.0 µM): 107%
- residual activity (CHEK1 (human); compound 1.0 µM): 91%
- residual activity (CHEK1 (human); compound 10.0 µM): 98%
- residual activity (MAPK10 (human); compound 1.0 µM): 81%
- residual activity (MAPK10 (human); compound 10.0 µM): 82%
- residual activity (MAPK12 (human); compound 1.0 µM): 101%
- residual activity (MAPK12 (human); compound 10.0 µM): 95%
- residual activity (TAOK1 (human); compound 1.0 µM): 104%
- residual activity (TAOK1 (human); compound 10.0 µM): 100%
- residual activity (DYRK2 (human); compound 1.0 µM): 93%
- residual activity (DYRK2 (human); compound 10.0 µM): 92%
- residual activity (BRSK1 (human); compound 1.0 µM): 89%
- residual activity (AURKB (human); compound 10.0 µM): 93%
- residual activity (MAP2K2 (human); compound 1.0 µM): 104%
- residual activity (MAP2K2 (human); compound 10.0 µM): 99%
- residual activity (PHKG1 (human); compound 1.0 µM): 109%
- residual activity (PHKG1 (human); compound 10.0 µM): 106%
- residual activity (MELK (human); compound 1.0 µM): 87%
- residual activity (MELK (human); compound 10.0 µM): 91%
- residual activity (RIPK2 (human); compound 1.0 µM): 107%
- residual activity (RIPK2 (human); compound 10.0 µM): 121%
- residual activity (CSNK2A1 (human); compound 1.0 µM): 80%
- residual activity (CSNK2A1 (human); compound 10.0 µM): 88%
- residual activity (BTK (human); compound 10.0 µM): 105%
- residual activity (PIM3 (human); compound 10.0 µM): 78%
- residual activity (MST4 (human); compound 1.0 µM): 83%
- residual activity (MST4 (human); compound 10.0 µM): 88%
- residual activity (SRPK1 (human); compound 1.0 µM): 92%
- residual activity (SRPK1 (human); compound 10.0 µM): 102%
- residual activity (PIM2 (human); compound 10.0 µM): 101%
- residual activity (RPS6KA3 KD1 KD2 (human); compound 1.0 µM): 100%
- residual activity (RPS6KA3 KD1 KD2 (human); compound 10.0 µM): 96%
- residual activity ([2]; compound 1.0 µM): 98%
- residual activity ([2]; compound 10.0 µM): 93%
- residual activity (FLT1 (human); compound 1.0 µM): 89%
- residual activity (FLT1 (human); compound 10.0 µM): 104%
Structure (SMILES): NS(=O)(=O)OC[C@@H]1C[C@@H](n2ccc3c(N[C@H]4CCc5ccccc54)ncnc32)C[C@@H]1O

- residual activity (PRKCA (human); compound 1.0 µM): 94%
- residual activity (PRKCA (human); compound 10.0 µM): 90%
- residual activity (EPHA2 (human); compound 1.0 µM): 92%
- residual activity (EPHA2 (human); compound 10.0 µM): 94%
- residual activity (MINK1 (human); compound 1.0 µM): 78%
- residual activity (MINK1 (human); compound 10.0 µM): 47%
- residual activity (PRKACA (human); compound 1.0 µM): 100%
- residual activity (PRKACA (human); compound 10.0 µM): 93%
- residual activity (AURKA (human); compound 1.0 µM): 95%
- residual activity (AURKA (human); compound 10.0 µM): 107%
- residual activity (ERBB4 (human); compound 1.0 µM): 106%
- residual activity (ERBB4 (human); compound 10.0 µM): 104%
- residual activity (FGFR1 (human); compound 1.0 µM): 111%
- residual activity (MAP2K6 (human); compound 1.0 µM): 82%
- residual activity (MAP2K6 (human); compound 10.0 µM): 74%
- residual activity (CDK2 CCNA2 (human); compound 1.0 µM): 95%
- residual activity (CDK2 CCNA2 (human); compound 10.0 µM): 95%
- residual activity ([1]; compound 1.0 µM): 71%
- residual activity ([1]; compound 10.0 µM): 30%
- residual activity (MAPKAPK3 (human); compound 1.0 µM): 103%
- residual activity (MAPKAPK3 (human); compound 10.0 µM): 97%
- residual activity (INSRR (human); compound 1.0 µM): 91%
- residual activity (INSRR (human); compound 10.0 µM): 75%
- residual activity (GCK (human); compound 1.0 µM): 107%
- residual activity (GCK (human); compound 10.0 µM): 92%
- residual activity (EEF2K (human); compound 10.0 µM): 75%
- residual activity (CHEK1 (human); compound 1.0 µM): 72%
- residual activity (CHEK1 (human); compound 10.0 µM): 44%
- residual activity (MAPK10 (human); compound 1.0 µM): 85%
- residual activity (MAPK10 (human); compound 10.0 µM): 86%
- residual activity (MAPK12 (human); compound 1.0 µM): 94%
- residual activity (MAPK12 (human); compound 10.0 µM): 70%
- residual activity (TAOK1 (human); compound 1.0 µM): 103%
- residual activity (TAOK1 (human); compound 10.0 µM): 92%
- residual activity (DYRK2 (human); compound 1.0 µM): 89%
- residual activity (DYRK2 (human); compound 10.0 µM): 121%
- residual activity (BRSK1 (human); compound 1.0 µM): 83%
- residual activity (BRSK1 (human); compound 10.0 µM): 89%
- residual activity (AURKB (human); compound 1.0 µM): 93%
- residual activity (AURKB (human); compound 10.0 µM): 88%
- residual activity (MAP2K2 (human); compound 1.0 µM): 123%
- residual activity (MAP2K2 (human); compound 10.0 µM): 113%
- residual activity (PHKG1 (human); compound 1.0 µM): 79%
- residual activity (PHKG1 (human); compound 10.0 µM): 72%
- residual activity (MELK (human); compound 1.0 µM): 92%
- residual activity (MELK (human); compound 10.0 µM): 75%
- residual activity (RIPK2 (human); compound 1.0 µM): 93%
- residual activity (RIPK2 (human); compound 10.0 µM): 81%
- residual activity (MAPKAPK5 (human); compound 1.0 µM): 89%
- residual activity (MAPKAPK5 (human); compound 10.0 µM): 76%
- residual activity (CSNK2A1 (human); compound 1.0 µM): 111%
- residual activity (CSNK2A1 (human); compound 10.0 µM): 79%
- residual activity (BTK (human); compound 1.0 µM): 98%
- residual activity (BTK (human); compound 10.0 µM): 96%
- residual activity (PIM3 (human); compound 1.0 µM): 99%
- residual activity (PIM3 (human); compound 10.0 µM): 64%
- residual activity (MST4 (human); compound 1.0 µM): 80%
- residual activity (MST4 (human); compound 10.0 µM): 72%
- residual activity (SRPK1 (human); compound 1.0 µM): 94%
- residual activity (SRPK1 (human); compound 10.0 µM): 80%
- residual activity (PIM2 (human); compound 1.0 µM): 93%
- residual activity (PIM2 (human); compound 10.0 µM): 98%
- residual activity ([2]; compound 1.0 µM): 107%
- residual activity ([2]; compound 10.0 µM): 75%
- residual activity (FLT1 (human); compound 1.0 µM): 79%
- residual activity (FLT1 (human); compound 10.0 µM): 89%
Structure (SMILES): NCC(=O)Nc1ccc(-n2nc(C(F)(F)F)cc2-c2ccc3c(ccc4ccccc43)c2)cc1
- residual activity (MAPK15 (human); compound 1.0 µM): 79%
- residual activity (MAPK15 (human); compound 10.0 µM): 75%
